# Test results published in patent US5508311A, “Aliphatic propargylamines as selective MAO-B inhibitors and as neuroprotective agents” (University of Saskatchewan, priority 1993, dated 1996).
# Assays:
# MAO-A = target: T1, MAO-A (Rattus norvegicus, UniProt P21396); test: biochemical; assay type: biochemical; details: substrate 5-HT (5 × 10^-4 M); rat liver MAO, in vitro; average of at least 3 independent experiments
# T1 sequence (P21396 1-526): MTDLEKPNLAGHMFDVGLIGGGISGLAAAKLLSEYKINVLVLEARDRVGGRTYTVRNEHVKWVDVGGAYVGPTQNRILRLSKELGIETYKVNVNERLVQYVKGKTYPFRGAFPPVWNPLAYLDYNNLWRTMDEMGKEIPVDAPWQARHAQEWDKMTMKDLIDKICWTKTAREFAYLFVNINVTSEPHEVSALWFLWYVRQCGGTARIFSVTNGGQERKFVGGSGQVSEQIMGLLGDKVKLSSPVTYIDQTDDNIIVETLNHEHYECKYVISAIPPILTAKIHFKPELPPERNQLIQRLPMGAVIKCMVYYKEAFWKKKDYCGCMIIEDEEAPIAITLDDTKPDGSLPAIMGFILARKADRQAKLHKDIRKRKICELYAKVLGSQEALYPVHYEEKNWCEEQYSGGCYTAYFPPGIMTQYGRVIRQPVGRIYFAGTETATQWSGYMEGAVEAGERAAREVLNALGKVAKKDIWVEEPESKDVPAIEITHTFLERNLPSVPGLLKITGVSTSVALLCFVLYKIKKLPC
# MAO-B = target: T2, MAO-B (Mus musculus, UniProt Q8BW75); test: MAO-B activity in the mouse brain after oral administration (substrate PE); assay type: in vivo; details: 2 hours
# T2 construct: MAO activities in the mouse brain after; from tissue
# T2 sequence (Q8BW75 1-520): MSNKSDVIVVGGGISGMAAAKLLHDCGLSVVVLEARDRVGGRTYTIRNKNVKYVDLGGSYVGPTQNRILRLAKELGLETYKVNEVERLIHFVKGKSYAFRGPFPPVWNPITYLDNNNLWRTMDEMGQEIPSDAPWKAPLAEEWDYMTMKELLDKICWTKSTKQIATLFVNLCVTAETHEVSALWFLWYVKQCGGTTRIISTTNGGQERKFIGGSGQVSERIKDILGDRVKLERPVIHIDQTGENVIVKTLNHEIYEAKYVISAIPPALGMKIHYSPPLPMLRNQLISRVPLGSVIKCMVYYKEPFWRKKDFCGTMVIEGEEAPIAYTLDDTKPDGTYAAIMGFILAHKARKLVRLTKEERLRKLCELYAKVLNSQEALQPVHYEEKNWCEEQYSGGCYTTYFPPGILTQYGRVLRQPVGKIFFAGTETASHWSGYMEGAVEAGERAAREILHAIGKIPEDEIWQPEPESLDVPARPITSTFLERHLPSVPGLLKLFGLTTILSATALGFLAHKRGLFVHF
# Protocol: Table 3 indicates the MAO activities in the mouse brain following oral administration of the aliphatic propargylamines.
# of each compound. Striata were dissected from the brain two hours after
# the administration of the drugs. MAOA and MAOB activities were determined
# Striata were dissected from the brain two
# hours after oral administration of the drugs. MAOB activities were then
# determined immediately. The values were estimated from doseresponse
smiles,measurement,setting,value
"C#CCN(C)C(C)CCC.Cl.O=C(O)C(=O)O (stereo not drawn) [Example M-2-PP, N-(2-Pentyl)-N-methylpropargylamine hydrochloride and oxalate]",IC50,MAO-A,10 µM
same,ED50,"MAO-B; mouse, oral, average of 5 animals per dose, estimated from dose response curves, read-out: Inhibition of MAO-B activity, dose response (ID50)",1 mg/kg
same,Relative activity PE,"MAO-B; oral 10 mg/Kg, PE (1.9 × 10^-5 M), mean ± standard error, saline = 100",31 ± 4%
